Results published in patent US20110009379A1, “INDOLINONE COMPOUND” (ASTELLAS PHARMA INC., priority 2008, published 2011).

Columns and labels:
[1] = target: T1, human TRPA1 (Homo sapiens, UniProt O75762, K186N/R3C/R58T); assay: Measurement of TRPA1 activation activity (intracellular calcium, FLIPR, HEK293 cells stably expressing human TRPA1); type: cell-based; details: change of intracellular calcium concentration
T1 construct: expressed in transfected cells; pcDNA3.1(+) vector)
Protocol: 10 ng of Human brain mRNA (Clontech Co.) was treated with DNase, and then was reverse transcribed using kit for reverse transcription-polymerase chain reaction (RT-PCR) (SUPERSCRIPT First-Strand Synthesis System for RT-PCR; Invitrogen Co.) to synthesize the first strand cDNA. PCR using a hot start method was performed using the first strand cDNA as a template and Taq DNA polymerase (LA Taq DNA polymerase; TAKARA SHUZO). The PCR was performed using oligonucleotides consisting of the nucleotide sequences, represented by sequence number 2 as a sense primer and sequence number 3 as an antisense primer, in which firstly, heat denaturation was performed at 98° C. (1 minute), and then a cycle of 98° C. (15 seconds)/56° C. (30 seconds)/72° C. (5 minutes) was repeated 35 times. As a result, a DNA fragment of about 3.3 kbp was amplified.
The DNA fragment was cloned to pCR-TOPO vector using a cloning kit (TOPO XL PCR Cloning Kit; Invitrogen). The obtained plasmid DNA was digested with restriction enzymes KpnI and HindIII, and then was cloned using plasmid pcDNA 3.1(+)(Invitrogen). In this connection, the plasmid pcDNA 3.1(+) has a promoter sequence derived from cytemegalovirus, and can be used in order to express a protein in animal cells.
The nucleotide sequences of the obtained clones were analyzed using DNA sequencer (ABI3700 DNA Sequencer; Applied Biosystems) by dideoxyterminator method, and the nucleotide sequence represented by sequence number 1 was obtained. Furthermore, when these sequences were translated to amino acid sequences, the amino acid sequence represented by sequence number 1 was obtained.
After constructing the expression vector of the human TRPA1 gene, selection by G418 was performed from the HEK293 cells which temporarily expressed TRPA1 by transfection operation to obtain cells stably expressing TRPA1. The above operation was performed according to known methods (experimental medicine supplementary volume, “Cultivation Cell Experimental Methods for Molecular Biology Study” published by Toshio Kuroki, Namho Hue and Kazuhiro Chida, 1995, Yodosha).
In order to measure the change of the intracellular calcium concentration in the cells stably expressing the human TRPA1, the change of the intracellular calcium concentration when a compound to be tested was added was measured using FLIPR (Molecular Device).
In order to measure the change of the intracellular calcium concentration with FLIPR, the following pretreatment was performed. First of all, assay buffer was prepared which was for adding fluorescent pigment Fluo4-AM (DOJIN) to the cells or washing the cells just before performing FLIPR assay. To a solution (hereinafter, HBSS/HEPES solution) where 20 mL of 1M HEPES (pH 7.4; Invitrogen) was added to 1000 mL of a physiological saline buffer (Hank's Balanced Salt Solution; HBSS) (Invitrogen), was added 10 mL of a solution where 710 mg of probenecid (Sigma) was dissolved into 5 mL of 1M aqueous NaOH solution and 5 mL of HBSS/HEPES solution was further added and mixed, and the assay buffer was thus prepared. Then, 50 μg of Fluo4-AM was dissolved into 22 μL of DMSO (DOJIN), the same amount of 20% pluronic acid (Molecular Probes) was added thereto and mixed, and the mixture was added to the 10.6 mL of the assay buffer where 105 μL of fetal bovine serum was added, to prepare a fluorescent pigment solution. The medium of the cells stably expressing TRPA1 was removed, 100 μL per well of the fluorescent pigment solution was dispensed immediately, followed by cultivation in a CO2 cultivator for 1 hour, and the fluorescent pigment was soaked in the cells. The cells after cultivation were washed using the assay buffer, followed by being set in FLIPR. Furthermore, a test sample, which was added to the cells stably expressing TRPA1, was prepared by using the assay buffer, and at the same time, was set in FLIPR. […]

[2] = tested on: RIN14B cells; assay: Measurement of 5-HT secretion from RIN14B; type: cell-based; details: 20 minutes at 37° C., relative to 300 μM allyl isothiocyanate = 100%, HBSS only = 0%
Protocol: In order to investigate whether TRPA1 is related to 5-HT release, 5-HT secretion promotion from RIN14B by a compound to be tested was measured.
The RIN14B cells cultivated in a petri dish were scraped using Phosphate buffered saline (PBS) containing 1 mM EDTA, distributed into 24 well plates, and cultivated for 2 days. As a medium, a medium in which 10% fetal bovine serum (ICN), 100 U/mL penicillin, and 100 μg/mL streptomycin was added to RPMI1640 (Invitrogen), was used. The cells were washed once with HBSS (Invitrogen) and added with 0.1% BSA and 10 μM fluoxetine (TOCRIS Co.), followed by dilution with the above HBSS, the prepared compound to be tested was added to RIN14B cells, followed by cultivation at 37° C., under 5% CO2 condition for 20 minutes. After cultivation, supernatant of cells was recovered, followed by freeze preservation. The content of 5-HT in the supernatant was measured by a commercial serotonin immunoassay kit (Beckman). 5-HT release promotion activation value (%) was evaluated as a relative value when the 5-HT release promotion value by 300 μM of allyl isothiocyanate was defined as 100%, and the 5-HT release promotion value by HBSS for dilution only was defined as 0%.

[3] = target: Cytochrome P450(2D6) (Homo sapiens, UniProt P10635); assay: Cytochrome P450(2D6) enzyme inhibition test; type: in vitro ADME; details: CYP2D6, fluorescent substrate 1.5 μmol/L, 37° C., 20 minutes
Sequence of Cytochrome P450(2D6) (P10635 whole entry): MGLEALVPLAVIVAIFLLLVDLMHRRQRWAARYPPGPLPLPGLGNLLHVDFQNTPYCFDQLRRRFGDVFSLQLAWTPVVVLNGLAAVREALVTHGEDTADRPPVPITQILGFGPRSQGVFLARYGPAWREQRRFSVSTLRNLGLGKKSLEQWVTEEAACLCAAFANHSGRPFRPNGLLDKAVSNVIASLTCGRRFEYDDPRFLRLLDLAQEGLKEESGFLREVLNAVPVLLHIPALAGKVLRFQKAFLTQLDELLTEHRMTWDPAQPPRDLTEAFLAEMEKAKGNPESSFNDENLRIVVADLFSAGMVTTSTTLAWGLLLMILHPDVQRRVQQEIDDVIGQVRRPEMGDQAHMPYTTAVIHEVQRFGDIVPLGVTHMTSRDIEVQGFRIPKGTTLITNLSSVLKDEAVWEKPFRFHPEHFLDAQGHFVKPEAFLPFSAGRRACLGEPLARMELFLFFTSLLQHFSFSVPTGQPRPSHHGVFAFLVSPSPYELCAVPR
Protocol: The experiment was performed in accordance with the method of Crespi et al. (Analytical Biochemistry, 248, 188-190, 1997).
As a substrate, 3-[2-(N,N-diethyl-N-methylamino)ethyl]-7-methoxy-4-methyl coumarine (1.5 μmol/L) a compound to be tested (3.1×10^−7 to 2×10^−5 M) and an enzyme (2.5×10^−8 M) were incubated at 37° C. for 20 minutes in total of […] of 100 mM phosphorous buffer (pH=7.4) including 8.2 mM NADP+, 0.41 mM glucose-6-phosphate, 0.41 mM MgCl2 and 0.4 Units/mL glucose-6-phosphate dehydrogenase, using 96 well plates. Then, 0.5 M aqueous 2-amino-2-hydroxymethyl-1,3-propandiol solution containing 80% acetonitrile was added to stop the reaction, fluorescence intensity (excitation wavelength; 390 nm, fluorescent wavelength; 460 nm) was measured with a fluorescent plate reader. An inhibition ratio was calculated with the following formula, and the test compound concentration when the inhibition ratio is 50% (IC50) was obtained.
C1: fluorescence intensity in the presence of the test compound and enzyme at know concentrations, and the substrate
C0: fluorescence intensity in the presence of the enzyme and substrate, without the test compound
B1: fluorescence intensity of blank well

[4] = tested on: delay of discharging time induced by loperamide in mice; assay: Loperamide induced constipation model (glass bead discharging time); type: in vivo; details: Mus musculus; mice (Slc:ddY, male), 0.3 mg/kg loperamide subcutaneously, compound orally; read-out: ED50 (amount which suppresses 50% of the delay of discharging time induced by loperamide)
Protocol: It has been known that loperamide as a μ opioid receptor agonist causes convulsive contraction in intestinal tracts. Thus, a delay in the intestinal transport ability due to loperamide is thought as a constipation IBS model.
Mice (Slc:ddY, five-week old, male) fasted from the previous evening of the experiment. On the day of the experiment, the mice were acclimatized to cages for measurement for 1 hour or more, and 0.3 mg/kg of loperamide was administered subcutaneously. After 30 minutes, a compound to be tested was administered orally, ether anesthesia was applied to the mice immediately thereafter, glass beads having diameter of 3 mm were inserted to 2 cm from anus. The mice were returned to the cages for measurement, and the time from waking to discharging of the glass beads was measured. Furthermore, the compound to be tested was dissolved into 10% DMSO, 10% cremophor, and 80% distillated water.
As a result, it has been recognized that there was a delay in the beads discharging time of the loperamide administration group (vehicle group) in comparison with the loperamide non-administration group (control group).
ED50 values (amount of the compound to be tested which suppresses 50% of the delay of discharging time induced by loperamide) of some of the compounds of the formula (I) are shown in Table 3. In this connection, comparative compound 1 is the same compound as comparative compound 1 in Test Example 4.

T1 sequence (O75762 whole entry R3C/R58T/K186N): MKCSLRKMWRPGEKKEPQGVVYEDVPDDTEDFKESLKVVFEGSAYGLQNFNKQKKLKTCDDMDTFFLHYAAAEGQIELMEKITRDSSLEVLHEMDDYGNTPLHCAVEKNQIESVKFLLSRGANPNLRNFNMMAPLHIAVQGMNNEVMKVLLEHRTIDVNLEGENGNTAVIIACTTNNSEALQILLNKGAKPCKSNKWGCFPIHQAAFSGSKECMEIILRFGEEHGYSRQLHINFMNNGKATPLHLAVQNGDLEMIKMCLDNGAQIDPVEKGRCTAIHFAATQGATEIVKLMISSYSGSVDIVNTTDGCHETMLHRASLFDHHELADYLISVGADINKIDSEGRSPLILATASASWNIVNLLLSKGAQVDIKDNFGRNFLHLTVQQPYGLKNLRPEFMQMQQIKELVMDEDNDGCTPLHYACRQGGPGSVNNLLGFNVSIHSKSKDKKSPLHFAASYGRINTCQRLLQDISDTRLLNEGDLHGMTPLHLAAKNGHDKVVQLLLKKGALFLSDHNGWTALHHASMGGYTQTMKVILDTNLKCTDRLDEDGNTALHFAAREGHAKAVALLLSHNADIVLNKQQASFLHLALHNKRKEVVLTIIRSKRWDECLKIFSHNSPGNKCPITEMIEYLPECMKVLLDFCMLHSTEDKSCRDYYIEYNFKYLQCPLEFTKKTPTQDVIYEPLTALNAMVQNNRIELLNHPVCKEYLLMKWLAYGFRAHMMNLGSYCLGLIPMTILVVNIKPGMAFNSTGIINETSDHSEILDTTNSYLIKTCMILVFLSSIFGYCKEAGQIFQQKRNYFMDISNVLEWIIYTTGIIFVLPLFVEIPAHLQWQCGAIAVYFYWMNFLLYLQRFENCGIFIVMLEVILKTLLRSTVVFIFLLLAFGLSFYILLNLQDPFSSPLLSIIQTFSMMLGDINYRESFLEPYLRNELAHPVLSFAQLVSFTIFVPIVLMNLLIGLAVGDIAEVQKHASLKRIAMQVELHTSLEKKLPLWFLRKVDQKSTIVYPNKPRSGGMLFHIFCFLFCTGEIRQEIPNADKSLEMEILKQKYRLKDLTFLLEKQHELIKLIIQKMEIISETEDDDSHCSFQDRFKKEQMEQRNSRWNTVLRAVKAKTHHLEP

EC50 [1]: 3 µM
IC50 [3]: > 20 µM
melting point: 140 to 142 °C
Structure (SMILES): O=C(O)/C=C1/C(=O)N(CC2CCCC2)c2ccccc21 [Example 26, (2E)-[1-(cyclopentylmethyl)-2-oxo-1,2-dihydro-3H-indol-3-ylidene]acetic acid]
5-HT release promotion activation value [2]: 102.5%
ED50 [4]: 0.51 mg/kg
